Data reported in US20250388605A1, “HETEROBIFUNCTIONAL COMPOUNDS AND METHODS OF TREATING DISEASE” (Halda Therapeutics OpCo, Inc., priority 2022, published 2025).

Legend:
[1] = tested on: T-Rex 293 cell line SC3 cells having increased expression of androgen receptor protein due to exposure to doxycycline; test: Cellular growth inhibition, T-Rex 293 SC3 cells with doxycycline (increased androgen receptor expression), CellTiter-Glo; type: cell-based; settings: T-Rex 293 SC3 cells with 10 ng/mL doxycycline (increased androgen receptor expression), 72 hours, CellTiter-Glo 2.0
Procedure, shortened: (§1)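 Growth inhibition is measured in an inducible AR-expressing T-Rex 293 clone, SC3, cultured with or without 10 ng/mL doxycycline in hormone-depleted medium. Test compounds are applied for 72 hours. GI50 values derive from CellTiter-Glo 2.0 signal fitted by four-parameter regression.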

[2] = tested on: T-Rex 293 cell line SC3 cells lacking increased expression of androgen receptor protein; test: Cellular growth inhibition, T-Rex 293 SC3 cells without doxycycline (no increased androgen receptor expression), CellTiter-Glo; type: cell-based; settings: T-Rex 293 SC3 cells not exposed to doxycycline (no increased androgen receptor expression), 72 hours
Procedure, shortened: as §1

VCaP cells = test: Cellular growth inhibition assay for VCaP cells, CellTiter-Glo; type: cell-based, human; settings: 72 hours
Procedure, shortened: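 GI50 values come from four-parameter curve fits of luminescence data normalized to a zero baseline. Compound, in medium with 0.5% DMSO, was added one day after plating and left for 72 h before CellTiter-Glo 2.0 addition.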

T47D cells = test: Cellular Growth Inhibition Assay for T47D Cells (CellTiter-Glo); type: cell-based, human; settings: 72 hours
Procedure, shortened: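 GI50 values derive from four-parameter regression of CellTiter-Glo 2.0 luminescence, using zero luminescence as baseline. Human breast cancer T47D cells (3000/well; DMEM, 10% FBS, 0.2 units/mL insulin) were exposed for 72 h to compound dilutions at 0.5% DMSO, with dosing starting 24 h after seeding.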

Row | GI50 (VCaP cells; Homo sapiens) [nM] | GI50 (T47D cells; Homo sapiens) [nM] | GI50 (VCaP cells) [nM] | GI50 (T47D cells) [nM] | SMILES | GI50 [1] [nM] | GI50 [2] [nM]
1 | < 500 | < 500 |  |  | Cn1cc(-c2cc(C(C)(C)O)ccc2Oc2ccc(N3CC(CC4CN(C5CCC(C(=O)N[C@H]6C(C)(C)[C@H](Oc7ccc(C#N)c(Cl)c7)C6(C)C)CC5)C4)C3)cc2)c2cc[nH]c2c1=O (stereo partly drawn) [Compound I-313] | 500 to 1500 | 500 to 1500
2 |  |  | < 500 | < 500 | CC(C)N(CCOC1CCN(c2ncc(C(=O)N[C@H]3C(C)(C)[C@H](Oc4ccc(C#N)c(Cl)c4)C3(C)C)cn2)CC1)c1cccc(Oc2ccc(C(C)(C)O)cc2-c2cn(C)c(=O)c3[nH]ccc23)c1F [Compound I-209] | < 500 | < 500
3 |  |  | < 500 | < 500 | Cn1cc(-c2cc(C(C)(C)O)ccc2Oc2ccc(CC3CC(C4CCCN(c5ncc(C(=O)N[C@H]6C(C)(C)[C@H](Oc7ccc(C#N)c(Cl)c7)C6(C)C)cn5)C4)C3)cc2)c2cc[nH]c2c1=O (single isomer, unassigned) [Compound I-347] | > 3000 | > 3000
4 |  |  | < 500 | > 3000 | Cn1cc(-c2cc(C(C)(C)O)ccc2OC2CC3CC2CC3OCC2CCN(c3ncc(C(=O)N[C@H]4C(C)(C)[C@H](Oc5ccc(C#N)c(Cl)c5)C4(C)C)cn3)CC2)c2cc[nH]c2c1=O (stereo partly drawn) [Compound I-296] | < 500 | > 3000
5 |  |  | 500 to 1500 | 1500 to 3000 | Cn1cc(-c2cc(C(C)(C)O)ccc2OCC(CCOC2CCN(c3ncc(C(=O)N[C@H]4C(C)(C)[C@H](Oc5ccc(C#N)c(Cl)c5)C4(C)C)cn3)CC2)C2CC2)c2cc[nH]c2c1=O (stereo partly drawn) [Compound I-265] | < 500 | 500 to 1500
6 |  |  | < 500 | 500 to 1500 | Cn1cc(-c2cc(C(C)(C)O)ccc2OCC2(C(=O)N3CC(OC4CCN(c5ncc(C(=O)N[C@H]6C(C)(C)[C@H](Oc7ccc(C#N)c(Cl)c7)C6(C)C)cn5)CC4)C3)CC2)c2cc[nH]c2c1=O [Compound I-267] | < 500 | 500 to 1500
7 | < 500 | < 500 |  |  | Cn1cc(-c2cc(C(C)(C)O)ccc2Oc2ccc(N3CCC(CC4CN(c5ncc(C(=O)N[C@H]6C(C)(C)[C@H](Oc7ccc(C#N)c(Cl)c7)C6(C)C)cn5)C4)CC3)cc2)c2cc[nH]c2c1=O [Compound I-350] | < 500 | < 500
8 | < 500 | < 500 |  |  | CCS(=O)(=O)c1ccc(Oc2ccc(CN3CC4(C3)CN(c3ncc(C(=O)N[C@H]5C(C)(C)[C@H](Oc6ccc(C#N)c(Cl)c6)C5(C)C)cn3)C4)c(F)c2)c(-c2cn(C)c(=O)c3[nH]ccc23)c1 [Compound I-271] | < 500 | < 500
9 |  |  | < 500 | < 500 | CCS(=O)(=O)c1ccc(OC(CCCCCN2CCN(c3ncc(C(=O)N[C@H]4C(C)(C)[C@H](Oc5ccc(C#N)c(Cl)c5)C4(C)C)cn3)CC2)C2CC2)c(-c2cn(C)c(=O)c3[nH]ccc23)c1 (stereo partly drawn) [Compound I-235] | < 500 | < 500
10 | < 500 | < 500 |  |  | CCS(=O)(=O)c1ccc(Oc2cccc(CCN3CC4(C3)CN(c3ncc(C(=O)N[C@H]5C(C)(C)[C@H](Oc6ccc(C#N)c(Cl)c6)C5(C)C)cn3)CCO4)c2F)c(-c2cn(C)c(=O)c3[nH]ccc23)c1 [Compound I-264] | < 500 | < 500
11 | < 500 | < 500 |  |  | CCS(=O)(=O)c1ccc(-c2cn(C)c(=O)c3[nH]ccc23)c(-n2cc(CCC3CCN(c4ncc(C(=O)NC5C(C)(C)C(Oc6ccc(C#N)c(Cl)c6)C5(C)C)cn4)CC3)ncc2=O)c1 (stereo not drawn) [Compound I-292, N-[3-(3-chloro-4-cyano-phenoxy)-2,2,4,4-tetramethyl-cyclobutyl]-2-[4-[2-[4-[5-ethylsulfonyl-2-(6-methyl-7-oxo-1H-pyrrolo[2,3-c]pyridin-4-yl)phenyl]-5-oxo-pyrazin-2-yl]ethyl]-1-piperidyl]pyrimidine-5-carboxamide] | < 500 | < 500
12 |  |  | < 500 | < 500 | Cn1cc(-c2cc(C(C)(C)O)ccc2Oc2ccc(CCN3CC4(C3)CN(c3ncc(C(=O)N[C@H]5C(C)(C)[C@H](Oc6ccc(C#N)c(Cl)c6)C5(C)C)cn3)C4)cc2)c2cc[nH]c2c1=O [Compound I-259] | < 500 | 500 to 1500
13 |  |  | < 500 | < 500 | CCS(=O)(=O)c1ccc(OCC(CCOC2CCN(c3ncc(C(=O)N[C@H]4C(C)(C)[C@H](Oc5ccc(C#N)c(Cl)c5)C4(C)C)cn3)CC2)C2CC2)c(-c2cn(C)c(=O)c3[nH]ccc23)c1 (stereo partly drawn) [Compound I-242] | < 500 | < 500
14 |  |  | < 500 | < 500 | Cn1cc(-c2cc(C(C)(C)O)ccc2Oc2ccc(F)c(OCCN3CC4(C3)CN(c3ncc(C(=O)N[C@H]5C(C)(C)[C@H](Oc6ccc(C#N)c(Cl)c6)C5(C)C)cn3)C4)c2F)c2cc[nH]c2c1=O [Compound I-239] | < 500 | < 500
15 |  |  | < 500 | < 500 | Cn1cc(-c2cc(C(C)(C)O)ccc2Oc2ccc(CCCC3CN(c4ncc(C(=O)N[C@H]5C(C)(C)[C@H](Oc6ccc(C#N)c(Cl)c6)C5(C)C)cn4)CCO3)cc2)c2cc[nH]c2c1=O (stereo partly drawn) [Compound I-307] | < 500 | > 3000
16 | < 500 | < 500 |  |  | Cn1cc(-c2cc(C(C)(C)O)ccc2OC2CCC(N3CC(OC4CCN(c5ncc(C(=O)N[C@H]6C(C)(C)[C@H](Oc7ccc(C#N)c(Cl)c7)C6(C)C)cn5)CC4)C3)CC2)c2cc[nH]c2c1=O (stereo partly drawn) [Compound I-288, N-[3-(3-chloro-4-cyano-phenoxy)-2,2,4,4-tetramethyl-cyclobutyl]-2-[4-[1-[4-[4-(1-hydroxy-1-methyl-ethyl)-2-(6-methyl-7-oxo-1H-pyrrolo[2,3-c]pyridin-4-yl)phenoxy]cyclohexyl]azetidin-3-yl]oxy-1-piperidyl]pyrimidine-5-carboxamide] | < 500 | < 500
17 |  |  | < 500 | < 500 | Cn1cc(-c2cc(C(C)(C)O)ccc2Oc2cccc(N3CC(CN4CCN(c5ncc(C(=O)N[C@H]6C(C)(C)[C@H](Oc7ccc(C#N)c(Cl)c7)C6(C)C)cn5)CC4(C)C)C3)c2F)c2cc[nH]c2c1=O [Compound I-294] | < 500 | > 3000
18 | > 3000 | 500 to 1500 |  |  | Cn1cc(-c2cc(C(C)(C)O)ccc2Oc2ccc(N3CC(CC4CCN(c5ccc(C(=O)N[C@H]6C(C)(C)[C@H](Oc7ccc(C#N)c(Cl)c7)C6(C)C)nc5)CC4)C3)cc2)c2cc[nH]c2c1=O [Compound I-338] | > 3000 | > 3000
